Data: publication PMC3375280 (PLoS ONE, 2012)
Where “and” joins values, the source holds several entries; their conditions need not be identical. Identical values can stand only once.

Tests used:
[1] = target: T1, AT1 wild-type (WT) receptor (Rattus norvegicus, UniProt P25095); assay: 125I-[Sar1,Ile8]AngII competition binding, wild-type receptor; conditions: WT; for Kd: COS1 cell membranes, 100 pM 125I-[Sar1,Ile8]AngII, 1 h 22°C, read-out: Binding affinity (Kd); for Kd ratio relative to olmesartan (in parentheses): compound Kd / olmesartan Kd
T1 construct: expressed in transfected cells; host or cells: COS1
T1 sequence (P25095 1-359): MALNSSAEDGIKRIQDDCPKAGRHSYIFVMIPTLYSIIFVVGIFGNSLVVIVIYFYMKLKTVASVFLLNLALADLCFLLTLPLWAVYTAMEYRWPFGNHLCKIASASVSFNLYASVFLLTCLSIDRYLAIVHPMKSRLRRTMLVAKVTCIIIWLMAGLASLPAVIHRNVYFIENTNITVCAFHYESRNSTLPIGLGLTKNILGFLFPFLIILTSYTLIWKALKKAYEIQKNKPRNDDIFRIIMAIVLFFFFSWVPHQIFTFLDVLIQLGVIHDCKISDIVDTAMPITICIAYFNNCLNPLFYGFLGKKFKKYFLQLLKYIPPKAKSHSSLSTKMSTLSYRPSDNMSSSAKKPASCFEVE
Description: The Kd and Bmax values of receptor binding were determined by ^125I-[Sar^1, Ile^8] […] Membranes expressing the WT or mutant AT1 receptors were incubated with 100 pM ^125I-[Sar^1, Ile^8] […] The binding reaction was terminated by filtering the incubation mixture through Whatman GF/C glass filters, and the residues were extensively washed further with binding buffer. The bound ligand fraction was determined from the counts per minute (cpm) remaining on the membrane. Binding kinetics values were determined as previously described.

[2] = target: T2, wild-type (WT) AT1 receptor (Rattus norvegicus, UniProt P25095); assay: inositol phosphate (IP) production in COS1 cells expressing WT AT1 receptor; conditions: 1 µM compound, vs basal IP production
T2 sequence (P25095 1-359): T1 sequence (P25095 1-359)
Description: The test compounds were added 1 h before the measurement of IP.
The WT and mutant AT1 receptors were transiently transfected into COS1 cells using Lipofectamine 2000 liposomal reagent (Roche Applied Science) according to the manufacturer’s instructions.
Cells expressing the WT and mutant AT1 receptors were incubated for 30 minutes at 22°C with or without the indicated concentrations of ARBs. The cells were washed-out once with the use of excess cold HBSS, and used in an IP production study. Total soluble IP was measured by the perchloric acid extraction method, as described previously [16].

AT1 receptor = conditions: Cys76 accessible; cited from earlier work

Compound	Kd [1]	Kd ratio relative to olmesartan (in parentheses) [1]	Pharmacological behaviour toward IP production (agonism / neutral antagonism / inverse agonism) [2]	% inhibition of 125I-[Sar1,Ile8]AngII binding by MTSEA+ reagent (AT1 receptor)
CCCc1nc(C(C)(C)O)c(C(=O)O)n1Cc1ccc(-c2cc(Cc3ccc(O)cc3)ccc2-c2nnn[nH]2)cc1 [R781253]	21 ± 10 nM	9.1 fold	inverse agonism	
CCCc1nc(C(C)(C)O)c(C(=O)O)n1Cc1ccc(-c2cc(Cc3ccc(OCOC)cc3)ccc2-c2nnn[nH]2)cc1 [R781254]	396 ± 80 nM	172 fold	inverse agonism	
CCCc1nc(C(C)(C)O)c(C(=O)O)n1Cc1ccc(-c2cc(Cc3cccc(O)c3)ccc2-c2nnn[nH]2)cc1 [R791212]	125 ± 26 nM		neutral antagonism	
CS(=O)(=O)SCCN [MTSEA^+, methanethiosulphonate ethyl-ammonium]				approximately 30%
CCCc1nc(C(C)(C)O)c(C(N)=O)n1Cc1ccc(-c2cc(Cc3ccccc3)ccc2-c2nnn[nH]2)cc1 [R801832]	276 ± 22 nM	100 fold and 120 fold	agonism	
CCCc1nc(C(C)C)c(C(N)=O)n1Cc1ccc(-c2cc(Cc3ccc(O)cc3)ccc2-c2nnn[nH]2)cc1 [R795100]	179 ± 84 nM		agonism	
